Assay results: US20070037870A1, “Novel substance having alpha-glucosidase inhibiting activity and food containing the same” (MORISHITA JINTAN CO., LTD., priority 2003, published 2007)

How the values were obtained:
α-glucosidase (sucrase) = target: T1, α-glucosidase (sucrase) (Rattus norvegicus, UniProt P23739); assay: Measurement of sucrase (α-glucosidase) inhibiting activity with crude enzyme from rat intestinal acetone powder; format: biochemical; settings: for IC50: crude rat intestinal enzyme, sucrose substrate, 0.1 M maleate buffer pH 6.0, 37° C., 30 minutes; for α-glucosidase inhibiting activity (in words): summary of Table 1 results
T1 construct: The resulting supernatant was separated as a crude enzyme stock solution; tissue SIGMA; host or cells: rat intestine (acetone powder)
Method: One gram intestinal acetone powder rat (manufactured by SIGMA) was suspended in 10 mL of 0.1 M maleate buffer, pH 6.0 and then centrifuged (3,000 rpm, 4° C., 20 min.). The resulting supernatant was separated as a crude enzyme stock solution. This crude enzyme stock solution was diluted at the degree of dilution previously determined in the following control test, to prepare a crude enzyme dilution which was then used in the subsequent measurement of sucrase inhibiting activity.
A buffer solution 50 μL and 100 μL of 74 mM aqueous sucrose solution were pipetted into each test tube and pre-heated for 3 minutes in a water bath at 37° C. A diluted crude enzyme stock solution 50 μL was added to this test tube and reacted at 37° C. for 30 minutes. After the reaction was finished, 800 μL purified water was added. The mixture was further heated at 80° C. for 3 minutes thereby inactivating the enzyme to terminate the reaction. The concentration of glucose in the reaction solution was quantified by using a commercial kit/mutarotase-glucose oxidase method (Glucose CII Test Wako, manufactured by Wako Pure Chemical Industries, Ltd.).
As the test substance, the reticulanol of the present invention, and Salacinol and kotalanol for comparison, all of which were obtained in Preparative Example 2 above, were used. A solution […] of the test substance in 0.1 M maleate buffer, pH 6.0 was introduced into each test tube (concentration of the test substance: 3 to 30 μg/mL), and 100 μL of 74 mM aqueous sucrose was pipetted into each test tube and pre-heated for 3 minutes in a water bath at 37° C. The above crude enzyme dilution 50 μL was added to each test tube and reacted at 37° C. for 30 minutes. After the reaction was finished, 800 μL purified water was added to each test tube, and the mixture was further heated at 80° C. for 3 minutes thereby inactivating the enzyme to terminate the reaction.
After the reaction was terminated, the concentration of glucose in the reaction solution was quantified by using the glucose CII Test Wako (manufactured by Wako Pure Chemical Industries, Ltd.).
An aqueous sucrose solution 100 μL was mixed with 50 μL of each test substance dissolved in a maleate buffer. Purified water 800 μL was added thereto and then 50 μL crude enzyme dilution was added thereto, and immediately the mixture was heated to […] to inactivate the enzyme. Thereafter, the concentration of glucose in the reaction solution was measured by the same method as described above.
Sucrase inhibiting activity was calculated from the following equation: Sucrase inhibiting activity (%)={(Glc0−Glcx)/Glc0}×100 wherein Glcx is a value obtained by subtracting the glucose concentration in the corresponding blank test from the concentration of glucose in the test sample, and Glc0 is the glucose concentration in the corresponding control.
An inhibition curve was prepared by plotting the inhibiting activity (%) calculated by the above equation on the ordinate and the concentration of each test substance (μg/mL) on the abscissa. From this inhibition curve, 50% inhibition concentration (IC50 value) was calculated as an indicator of sucrase inhibiting activity.

α-glucosidase = settings: compared with marketed synthetic medicine Glucobay; cited from earlier work

T1 sequence (P23739 whole entry): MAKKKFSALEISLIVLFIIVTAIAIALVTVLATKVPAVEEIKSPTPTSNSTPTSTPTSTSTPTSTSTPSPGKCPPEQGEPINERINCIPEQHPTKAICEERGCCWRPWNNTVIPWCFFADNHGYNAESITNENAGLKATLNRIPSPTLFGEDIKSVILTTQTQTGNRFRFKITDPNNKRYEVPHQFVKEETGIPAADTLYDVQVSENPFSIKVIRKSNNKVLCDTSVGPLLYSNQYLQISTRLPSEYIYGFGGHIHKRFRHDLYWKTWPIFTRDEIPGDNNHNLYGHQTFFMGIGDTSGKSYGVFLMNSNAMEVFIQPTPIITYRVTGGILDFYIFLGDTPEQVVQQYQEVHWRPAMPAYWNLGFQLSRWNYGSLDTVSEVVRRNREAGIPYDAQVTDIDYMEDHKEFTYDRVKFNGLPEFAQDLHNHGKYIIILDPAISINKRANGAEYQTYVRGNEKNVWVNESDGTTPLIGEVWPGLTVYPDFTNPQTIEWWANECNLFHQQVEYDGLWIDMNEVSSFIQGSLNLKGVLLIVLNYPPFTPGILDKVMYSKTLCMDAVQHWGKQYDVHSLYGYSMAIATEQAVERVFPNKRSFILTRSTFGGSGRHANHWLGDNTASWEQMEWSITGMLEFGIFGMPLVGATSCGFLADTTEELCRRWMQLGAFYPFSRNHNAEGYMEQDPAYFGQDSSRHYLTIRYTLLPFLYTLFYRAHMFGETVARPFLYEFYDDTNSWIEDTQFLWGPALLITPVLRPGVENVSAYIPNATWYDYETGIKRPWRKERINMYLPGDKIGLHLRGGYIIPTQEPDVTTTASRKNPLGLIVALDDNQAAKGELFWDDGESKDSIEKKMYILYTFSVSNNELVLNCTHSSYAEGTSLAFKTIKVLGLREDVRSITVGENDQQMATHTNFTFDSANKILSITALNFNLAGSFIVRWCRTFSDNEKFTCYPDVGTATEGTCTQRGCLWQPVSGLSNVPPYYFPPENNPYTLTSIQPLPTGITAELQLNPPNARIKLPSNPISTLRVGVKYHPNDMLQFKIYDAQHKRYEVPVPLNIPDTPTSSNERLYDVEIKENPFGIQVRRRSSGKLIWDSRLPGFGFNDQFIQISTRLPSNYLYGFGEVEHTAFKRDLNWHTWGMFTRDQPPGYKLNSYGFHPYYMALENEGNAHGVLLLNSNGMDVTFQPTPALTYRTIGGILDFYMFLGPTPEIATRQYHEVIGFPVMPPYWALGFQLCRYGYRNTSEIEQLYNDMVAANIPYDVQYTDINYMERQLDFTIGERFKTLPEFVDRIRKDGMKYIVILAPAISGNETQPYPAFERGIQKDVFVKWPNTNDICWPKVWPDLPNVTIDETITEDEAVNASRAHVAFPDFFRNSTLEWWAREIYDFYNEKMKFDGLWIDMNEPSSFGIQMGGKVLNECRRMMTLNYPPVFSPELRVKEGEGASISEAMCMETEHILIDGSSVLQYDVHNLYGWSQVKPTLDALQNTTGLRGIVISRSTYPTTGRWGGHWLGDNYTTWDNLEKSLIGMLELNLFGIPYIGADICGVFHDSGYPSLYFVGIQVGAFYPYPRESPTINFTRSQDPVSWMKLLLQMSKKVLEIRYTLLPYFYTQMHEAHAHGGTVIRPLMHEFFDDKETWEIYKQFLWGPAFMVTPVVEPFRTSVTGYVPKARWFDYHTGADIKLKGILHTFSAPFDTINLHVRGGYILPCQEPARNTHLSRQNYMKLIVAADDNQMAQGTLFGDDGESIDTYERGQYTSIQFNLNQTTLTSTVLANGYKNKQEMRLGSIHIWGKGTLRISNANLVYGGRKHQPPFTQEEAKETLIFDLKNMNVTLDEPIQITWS

Row | SMILES | IC50 (α-glucosidase (sucrase)) [nM] | α-glucosidase inhibiting activity (in words) (α-glucosidase (sucrase)) | α-glucosidase inhibiting activity compared with Glucobay (α-glucosidase) | α-glucosidase inhibiting activity relative to Salacinol (α-glucosidase (sucrase); compared with Salacinol)
1 | O=S(=O)([O-])O[C@H](CO)[C@@H](O)C[S+]1C[C@H](O)[C@@H](O)[C@@H]1CO (stereo partly drawn) [Salacinol] | 2420 | very strong α-glucosidase inhibiting activity | almost equivalent | 
2 | O=S(=O)([O-])OC(C(O)C[S+]1CC(O)C(O)C1CO)C(O)C(O)C(O)CO (stereo not drawn) [Kotalanol, kotalanol] | 424 | very strong α-glucosidase inhibiting activity | almost equivalent | 
3 | O=S(=O)([O-])OC(C(O)C[S+]1CC(O)C(O)C1CO)C(O)C(O)CO (stereo not drawn) [Reticulanol, reticulanol] | 963 | very strong α-glucosidase inhibiting activity |  | at least twice as high
